Source: patent publication US12472193B2, “Methods and compositions for treating and preventing respiratory related diseases and conditions with xylitol-headgroup lipid analogs” (National Jewish Health, priority 2017, dated 2025)
Entries after “also recorded” stand apart in the source; their conditions may differ.

Experiments:
TLR 3 = target: T1, TLR 3 (Homo sapiens, UniProt O15455); assay: poly I:C-induced IL-8 release by BEAS2B cells (TLR 3 antagonism); type: cell-based; details: for antagonism of TLR 3 activation (IL-8 release): poly I:C, 200 μg/ml lipid, 48 hours; for TLR3 antagonist activity: reduction in cytokine secretion vs activating TLR ligand alone; for IL-8 release from BEAS2B cells in the absence of poly I:C: lipid alone
T1 construct: endogenous in cells; host or cells: BEAS2B (ATCC)
T1 sequence (O15455 24-904): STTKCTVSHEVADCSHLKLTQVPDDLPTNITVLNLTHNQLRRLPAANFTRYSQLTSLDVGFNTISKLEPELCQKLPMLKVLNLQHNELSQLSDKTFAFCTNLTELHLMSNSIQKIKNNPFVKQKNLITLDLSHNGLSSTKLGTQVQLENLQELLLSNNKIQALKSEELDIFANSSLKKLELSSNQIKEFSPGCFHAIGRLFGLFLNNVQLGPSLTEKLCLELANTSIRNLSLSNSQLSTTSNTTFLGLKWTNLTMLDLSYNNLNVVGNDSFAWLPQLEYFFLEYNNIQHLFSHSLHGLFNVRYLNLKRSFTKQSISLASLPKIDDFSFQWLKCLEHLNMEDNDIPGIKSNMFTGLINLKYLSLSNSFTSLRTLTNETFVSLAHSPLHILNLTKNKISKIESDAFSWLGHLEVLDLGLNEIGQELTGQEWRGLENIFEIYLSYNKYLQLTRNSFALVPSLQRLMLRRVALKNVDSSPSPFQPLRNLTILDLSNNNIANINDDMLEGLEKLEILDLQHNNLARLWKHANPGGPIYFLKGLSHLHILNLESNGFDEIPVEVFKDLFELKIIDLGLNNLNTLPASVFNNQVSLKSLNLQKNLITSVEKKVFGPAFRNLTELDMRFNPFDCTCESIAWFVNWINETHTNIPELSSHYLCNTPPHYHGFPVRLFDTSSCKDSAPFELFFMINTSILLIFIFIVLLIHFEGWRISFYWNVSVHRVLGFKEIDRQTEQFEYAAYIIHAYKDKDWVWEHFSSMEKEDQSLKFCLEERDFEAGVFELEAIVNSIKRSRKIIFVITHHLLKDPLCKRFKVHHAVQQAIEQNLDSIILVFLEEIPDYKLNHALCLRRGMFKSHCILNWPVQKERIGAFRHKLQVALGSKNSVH
Method: Human bronchial epithelial cells, BEAS2B, were obtained from ATCC and maintained in bronchial epithelial cell growth medium (BEGM), supplemented with the BulleKit from Lonza in accordance with protocol (M. H. Hudy, S. et al., “Cigarette smoke modulates rhinovirus-induced airway epithelial cell chemokine production.,” Eur. Respir. J., vol. 35, no. 6, pp. 1256-63, June 2010). Cells were cultured at 37 C with 5% carbon dioxide:95% air atmosphere maintained within the incubator. Experiments were conducted in 48-well plates and cells were seated at a density of 5×10^4 per well. After 24 hours, the BEGM medium was replaced with RPMI-1640 medium and incubated for an additional 24 hours. Liposomes were prepared as described above. Each condition for cell stimulation and antagonism was prepared in RPMI medium in a separate tube and consisted of: control (medium alone), TLR agonist, TLR agonist+lipid, and lipid alone. The cells were incubated in […] medium either with or without agonists and antagonists at 37° C. for 48 hours. Subsequently, media were collected, diluted and an enzyme-linked immunosorbent assay (ELISA) was performed to quantify IL-8 release by cells.
The ability of PX lipids to enter the endosomal compartment and modulate immune signaling was next assessed. The human bronchial epithelial cell line, BEAS2B, expresses TLR 3 in its endosomal compartments and is susceptible to infection by respiratory syncytial virus, making this cell line ideal cell line for this study. BEAS2B cells were stimulated with the TLR 3 agonist, poly I:C, in the presence or absence of phospholipid for 48 hours. After incubation, media was collected and IL-8 was quantified as a consequence of TLR 3 activation, and results are summarized in FIG. 5. […] Results from these experiments indicate that xylitol analogs were able to gain entry into BEAS2B cells and inhibit TLR 3 signaling. […] Thus, DMPX, 16:1 DPPX and 18:2 DLPX act as […]

RSV = assay: Quantitative RSV plaque assay in HEp2 cells; type: cell-based, human RSV A2 strain; details: for antiviral activity against RSV by plaque assay: 50 μg/mL lipid, HEp2, 37° C.
Method: Viral stocks were propagated in HEp2 cell monolayers using DMEM/Ham's F12 Medium (GIBCO), plus 5% bovine growth serum (Hyclone) with 1× penicillin streptomycin, and virus was purified using methods previously described [M. Numata, H. W. Chu, A. Dakhama, and D. R. Voelker, “Pulmonary surfactant phosphatidylglycerol inhibits respiratory syncytial virus-induced inflammation and infection.,” Proc. Natl. Acad. Sci. U.S.A., vol. 107, no. 1, pp. 320-5, 2010.]. Viral titers and growth were measured by plaque assays [J. L. McKimm-Breschkin, “A simplified plaque assay for respiratory syncytial virus—direct visualization of plaques without immunostaining,” 2004.]. The antiviral activity of xylitol-headgroup lipids was determined by in vitro RSV infection in the presence or absence of lipid and infectious particles were quantified by viral plaque assay. HEp2 cells were plated at a density of 1.8×10^6 per well in a 6 well plate 24 hours prior to infection in order to create a uniform monolayer. Cell monolayers were infected for 2 hours at 37° C. with serial dilutions of RSV alone and RSV in combination with 50 μg/mL of phospholipid. Following the 2-hour period of infection, the inoculum was removed and 3 mL of medium containing 0.3% agarose was added, allowed to solidify and placed in a 37° C. incubator for 6 days. On day 6 the cells were fixed overnight with formalin and then stained with a neutral red stain and viral plaques were quantified visually.
An optimized quantitative plaque assay (described for RSV by J. L. McKimm-Breschkin, “A simplified plaque assay for respiratory syncytial virus-direct visualization of plaques without immunostaining,” 2004) was applied to survey the ability of PX lipids to inhibit RSV infection. The human epithelial cell line, HEp2, was seeded at a density of 1.8×10^6 per well in a 6-well plate 24 hours in advance of infection. Reaction conditions for infection took place in serum-free medium and were combined before addition to cells. A standard dilution of virus alone was prepared and 50 μg/mL phospholipid in combination with RSV was also prepared. Cells were washed with PBS to remove any serum prior to infection and then 500 μL of virus in various combinations with lipids was added to each well and incubated at 37° C. for 2 hours. Plates were rotated every 20 minutes for even distribution of viral infection. After infection, the viral inoculum was removed and medium containing 0.3% agarose was added to each well and allowed to solidify then placed back into the incubator at 37° C. for 6 days. On day 6, cells were fixed overnight then the agarose layer was removed and wells were stained with neutral red and viral plaques counted. POPG is a known inhibitor of RSV infection in vitro and in vivo. […] Ester-linked saturated xylitol lipids composed the moderately effective antivirals. The sole xylitol analog that was determined ineffective was saturated and ether-linked.

SMILES	antagonism of TLR 3 activation (IL-8 release) (TLR 3)	TLR3 antagonist activity (TLR 3)	antiviral activity against RSV by plaque assay (RSV)	IL-8 release from BEAS2B cells in the absence of poly I:C (TLR 3)	reduction of RSV viral infection by a factor of (RSV; 50 μg/ml lipid, 10^4 infectious virus/ml, HEp2)
CCCCCCCCCCCCCCOC[C@H](COP(=O)(O)OCC(O)C(O)C(O)CO)OCCCCCCCCCCCCCC (mixture of isomers) [14:0 DEPX, sn-1-O-myristyl, sn-2-O-myristyl sn-3 glycerol phosphoxylitol]	suppressed/inhibited activation of TLR3	+ (cutoff being greater than a 50% reduction in cytokine secretion compared to activating TLR ligand alone)	ineffective as an antiviral; also recorded: ineffective at preventing RSV infection; also recorded: did not inhibit plaque formation	–	–
CCCCCCC=CCCCCCCCC(=O)OCC(COP(=O)(O)OCC(O)C(O)C(O)CO)OC(=O)CCCCCCCC=CCCCCCC (mixture of isomers) [16:1 DPPX, sn-1-palmitoleoyl, sn-2-palmitoleoyl sn-3 glycerol phosphoxylitol]	stimulated a robust release of IL-8; also recorded: ineffective antagonists of TLR 3	–	–	stimulated a robust release of IL-8	–
CCCCCCCCC=CCCCCCCCCOCC(COP(=O)(O)OCC(O)C(O)C(O)CO)OCCCCCCCCC=CCCCCCCCC (mixture of isomers) [18:1 DEPX, sn-1-O-octadecenyl, sn-2-O-octadecenyl sn-3 glycerol phosphoxylitol]	suppressed/inhibited activation of TLR3	+ (cutoff being greater than a 50% reduction in cytokine secretion compared to activating TLR ligand alone)	inhibit infection and propagation of RSV	–	–
CCCCCC=CCC=CCCCCCCCC(=O)OCC(COP(=O)(O)OCC(O)C(O)C(O)CO)OC(=O)CCCCCCCC=CCC=CCCCCC (mixture of isomers) [18:2 DLPX, sn-1-linoleoyl, sn-2-linoleoyl sn-3 glycerol phosphoxylitol]	ineffective antagonists of TLR 3	–	–	elicited an inflammatory response	–
CCCCCCCCCCCCCC(=O)OC[C@H](COP(=O)(O)OCC(O)C(O)C(O)CO)OC(=O)CCCCCCCCCCCCC (mixture of isomers) [DMPX, sn-1-myristoyl, sn-2-myristoyl sn-3 glycerol phosphoxylitol]	ineffective antagonists of TLR 3	–	moderate antiviral activity	elicited an inflammatory response	–
CCCCCCCCC=CCCCCCCCC(=O)OCC(COP(=O)(O)OCC(O)C(O)C(O)CO)OC(=O)CCCCCCCC=CCCCCCCCC (mixture of isomers) [DOPX, sn-1-oleoyl, sn-2-oleoyl sn-3 glycerol phosphoxylitol]	suppressed/inhibited activation of TLR3	+ (cutoff being greater than a 50% reduction in cytokine secretion compared to activating TLR ligand alone)	inhibit infection and propagation of RSV	–	–
CCCCCCCCCCCCCCCC(=O)OCC(COP(=O)(O)OCC(O)C(O)C(O)CO)OC(=O)CCCCCCCCCCCCCCC (stereo not shown) [DPPX, sn-1-palmitoyl, sn-2-palmitoyl sn-3 glycerol phosphoxylitol]	suppressed/inhibited activation of TLR3	+ (cutoff being greater than a 50% reduction in cytokine secretion compared to activating TLR ligand alone)	moderate antiviral activity	–	–
CCCCCCCCCCCCCCCCCC(=O)OCC(COP(=O)(O)OCC(O)C(O)C(O)CO)OC(=O)CCCCCCCCCCCCCCCCC (stereo not shown) [DSPX, sn-1-stearoyl, sn-2-stearoyl sn-3 glycerol phosphoxylitol]	suppressed/inhibited activation of TLR3	+ (cutoff being greater than a 50% reduction in cytokine secretion compared to activating TLR ligand alone)	moderate antiviral activity	–	–
CCCCCCCC/C=C\CCCCCCCC(=O)O[C@H](COC(=O)CCCCCCCCCCCCCCC)COP(=O)([O-])OCC[N+](C)(C)C [POPC, 1-palmitoyl-2-oleoyl-sn-glycero-3-phosphocholine, reference compound]	unaffected	–	ineffective as an antiviral	–	–
CCCCCCCC/C=C\CCCCCCCC(=O)O[C@H](COC(=O)CCCCCCCCCCCCCCC)COP(=O)(O)OCC(O)CO (stereo partly shown) [POPG, palmitoyl-oleoyl-phosphatidylglycerol, reference compound]	markedly inhibited	–	–	–	> 10^4
CCCCCCCC/C=C\CCCCCCCC(=O)O[C@H](COC(=O)CCCCCCCCCCCCCCC)COP(=O)(O)OCC(O)C(O)C(O)CO (stereo partly shown) [POPX, sn-1-palmitoyl, sn-2-oleoyly sn-3 glycerol phosphoxylitol]	suppressed/inhibited activation of TLR3	+ (cutoff being greater than a 50% reduction in cytokine secretion compared to activating TLR ligand alone)	–	–	–
